Patent US7713477B2, “Systems and methods for monitoring chemical and biological activities using differential measurements” (priority 2002, dated 2010)

Tests used:
TF-1 cells [1] = test: Differential response of TF-1 cells against stimuli and controls at one, two and five minutes (FIG. 9B); type: cell-based; conditions: two and five minutes after stimulation, factor 100:1 dilution in d-PBS, 25 microliter into approximately 200 microliters cell suspension
Excerpt: FIG. 9B illustrates a second set of experiments, in which the differential responses of a population of TF-1 cells against numerous stimuli and controls are shown at one minute, two minutes, and five minutes after stimulation. In these experiments, a population of TF-1 cells was fractionated into two portions of equal volume and cell density immediately before the experiment. One of the two fractions received a potential stimulus, and the other a control in the form of a quantity of pure Dulbecco's phosphate buffered saline (d-PBS)equal to the quantity of d-PBS which contained the stimulant. […] Next, a series of factors and interleukins was compared against a reference sample. Each factor was introduced into one of two fractionated volumes containing TF-1 cells, via a 100:1 dilution of factor to d-PBS, followed by a 25 microliter addition of the diluted factor into approximately 200 microliters of the cell suspension. At the same time, the reference population of cells was prepared by adding 25 microliters of d-PBS alone into the second of the two cell fractions. Both fractions were then inserted into their respective channels in the apparatus, wherein said reference population was always inserted in the same channel, and measurements of the differential voltage were taken at pre-defined intervals over a five minute period. After each experiment, both channels were flushed with ˜2 ml of cell-free culture media, to insure that all previous cellular material and any other potential compounds from a given experiment were removed from the channel before the subsequent experiment.

TF-1 cells [2] = conditions: stated as known, background knowledge; cited from earlier work
concanavalin-A = concanavalin-A (Canavalia ensiformis, UniProt P02866); test: Binding of dextran in solution to concanavalin-A immobilized on the measurement probes (FIG. 6); conditions: phosphate buffered saline with calcium and magnesium, physiologic pH and osmolarity; regions 600b and 600c of FIG. 6
Excerpt: A common AC voltage of approximately 40 millivolts and at a frequency of approximately 1 KHz is placed upon measurement probes 313 and 323. The circuit continues across the interface of measurement probes 313 and 323, through the conductive solution in sample chambers 310 and 320, and completed via attachment of signal grounds 314 and 324.
The voltage difference between measurement probes 313 and 317 is placed across the antipodal inputs of the first differential amplifier 221; similarly, the voltage across measurement probes 323 and 327 is placed across antipodal inputs of the second differential amplifier 222. The amplified differential voltages produced by 221 and 222 are fed into DC-converters 224 and 225 (e.g., root-mean-square averaging devices. The outputs 221a and 222a, being now of a DC nature, are input into antipodal inputs of the third differential amplifier 226, the resulting difference signal 227 being measured by a simple voltmeter 400, said voltmeter referenced to the common ground. This voltage is directly proportional to the difference in the voltage drops across the two pairs of measurement probes 313 and 317, and 323 and 327.
FIG. 6 illustrates the result of a second experiment using the monitoring system of FIG. 3B. […]

TF-1 cells [3] = test: Differential response of TF-1 cells stimulated vs un-stimulated, monitoring system of FIG. 8 (FIG. 9A); type: cell-based
Excerpt: In this set of experiments, the monitoring system as shown in FIG. 8 was used to directly compare the activity of a known modification of the extra-cellular environment to controls. In the monitoring system of FIG. 8, two sample chambers (formed a fluid channels) 800a and 800b, along with four ports 801a-d, were fabricated using micromachining techniques on an acrylic substrate. The dimensions of the channels were approximately 250 micrometers wide, 100 micrometers deep, and with a total length of approximately 1.5 centimeters. The substrate was fastened in a water-tight manner, using thin film epoxy, to a pre-fabricated printed circuit board (not explicitly shown), on which eight gold-plated copper conductive traces 820a-d and 830a-d of width approximately 250 micrometers were deposited. Using the monitoring system architecture shown in FIG. 3D, in which the phase meter 223 was not present and DC-converters 224 and 225 comprised a device which converts and AC signal into a DC signal, whose amplitude is roughly the root-mean-square (RMS) of the AC amplitude. […]

## IL5: interleukin tested on TF-1 cells
TF-1 cells [1]
  differential response over the three controls: significantly larger differential response over the three controls

## bovine serum albumin [BSA, reference compound]
TF-1 cells [2]
  known activity against TF-1 cells: known not to affect TF-1 cells

## dextran
concanavalin-A
  binding of dextran to immobilized concanavalin-A, shown as new voltage level: bound specifically to the immobilized concanavalin-A molecules

## granulocyte-macrophage colony stimulating factor [GM-CSF]
TF-1 cells [3]; AC approximately 10 KHz, thirty minute experiment, change continues nearly monotonic
  time at which change in differential response begins: around eight
TF-1 cells [3]; AC frequency approximately 10 KHz, about 2 million cells per milliliter, GM-CSF in quantity to elicit maximum response, followed thirty minutes
  differential response of stimulated cells over the control: show a change in the differential response over the control
TF-1 cells [1]
  differential response over the three controls: significantly larger differential response over the three controls
TF-1 cells [2]
  known activity against TF-1 cells: induces cell proliferation in TF-1 cells

B1: IL4: interleukin tested on TF-1 cells (protein, UniProt P05112 25-153, looked up)
Interleukin-4: HKCDITLQEIIKTLNSLTEQKTLCTELTVTDIFAASKNTTEKETFCRAATVLRQFYSHHEKDTRCLGATAQQFHRHKQLIRFLKRLDRNLWGLAGLNSCPVKEANQSTLENFLERLKTIMREKYSKCSS
TF-1 cells [1]
  differential response over the three controls: significantly larger differential response over the three controls
